Assays:
[1] = tested on: johnsongrass; assay: Test C postemergence; format: in vivo, Sorghum halepense; details: for Plant response rating (0 to 100), Johnsongrass: 16 g ai/ha, 0 is no effect, 100 is complete control; for Johnsongrass plant response rating: 31 g ai/ha; for Johnsongrass plant response rating / Plant response rating, Johnsongrass: scale 0 to 100 (0 no effect, 100 complete control)
How it was run: (§1)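 Rated visually on 0–100 (100 = complete control) after 13–15 days under glass. Treatments went onto freshly seeded loam/sand soil or onto emerged plants at the 1- to 4-leaf stage, using a surfactant-containing solvent formulation.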

[2] = tested on: sedge, umbrella; assay: Test B flooded paddy test; format: in vivo, Cyperus difformis; details: Flood, 250 g ai/ha; 0 to 100 scale where 0 is no effect and 100 is complete control
How it was run: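 Post-emergence paddy-water application at the 2-leaf stage, with 3 cm flood kept for the whole test. Response was judged visually relative to controls after 13 to 15 greenhouse days, 0 indicating no effect and 100 complete control.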

[3] = tested on: wheat; assay: Test A postemergence; format: in vivo, Triticum aestivum
How it was run: (§2)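 Greenhouse pot test, loam/sand soil. Formulation: non-phytotoxic solvent mix plus surfactant. Pre: directed spray onto soil after sowing. Post: plants at 1–2 leaf, 2–10 cm. Rated visually vs untreated controls at ~10 d, 0 (no effect) to 100 (complete control).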

[4] = tested on: oilseed rape; assay: Test C postemergence; format: in vivo, Brassica napus; details: for Plant response rating (0 to 100), Oilseed Rape: 16 g ai/ha, 0 is no effect, 100 is complete control; for Oilseed Rape plant response rating: 31 g ai/ha; for Oilseed Rape plant response rating / Plant response rating, Oilseed Rape: scale 0 to 100 (0 no effect, 100 complete control)
How it was run: as §1

[5] = tested on: barnyardgrass; assay: Test A preemergence; format: in vivo, Echinochloa crus-galli; details: for Barnyardgrass plant response rating (0 to 100 scale, 0 is no effect, 100 is complete control): 125 g ai/ha
How it was run: as §2

[6] = tested on: large (Lg) crabgrass; assay: Test C postemergence; format: in vivo, Digitaria sanguinalis; details: for Plant response rating (0 to 100), Crabgrass, Large: 16 g ai/ha, 0 is no effect, 100 is complete control; for Crabgrass, Large plant response rating: 31 g ai/ha; for Crabgrass, Large plant response rating / Plant response rating, Crabgrass, Large: scale 0 to 100 (0 no effect, 100 complete control)
How it was run: as §1

[7] = tested on: barnyardgrass; assay: Test C postemergence; format: in vivo, Echinochloa crus-galli; details: for Plant response rating (0 to 100), Barnyardgrass: 16 g ai/ha, 0 is no effect, 100 is complete control; for Barnyardgrass plant response rating: 31 g ai/ha, 13 to 15 days; for Barnyardgrass plant response rating / Plant response rating, Barnyardgrass: scale 0 to 100 (0 no effect, 100 complete control)
How it was run: as §1

[8] = tested on: morningglory; assay: Test C postemergence; format: in vivo, Ipomoea coccinea; details: for Plant response rating (0 to 100), Morningglory: 16 g ai/ha, 0 is no effect, 100 is complete control; for Morningglory plant response rating: 31 g ai/ha; for Morningglory plant response rating / Plant response rating, Morningglory: scale 0 to 100 (0 no effect, 100 complete control)
How it was run: as §1

[9] = tested on: yellow nutsedge; assay: Test C postemergence; format: in vivo, Cyperus esculentus; details: for Plant response rating (0 to 100), Nutsedge, Yellow: 16 g ai/ha, 0 is no effect, 100 is complete control; for Nutsedge, Yellow plant response rating: 31 g ai/ha; for Nutsedge, Yellow plant response rating / Plant response rating, Nutsedge, Yellow: scale 0 to 100 (0 no effect, 100 complete control)
How it was run: as §1

[10] = tested on: blackgrass; assay: Test C postemergence; format: in vivo, Alopecurus myosuroides; details: for Plant response rating (0 to 100), Blackgrass: 16 g ai/ha, 0 is no effect, 100 is complete control; for Blackgrass plant response rating: 31 g ai/ha; for Blackgrass plant response rating / Plant response rating, Blackgrass: scale 0 to 100 (0 no effect, 100 complete control)
How it was run: as §1

[11] = tested on: kochia; assay: Test C postemergence; format: in vivo, Kochia scoparia; details: for Plant response rating (0 to 100), Kochia: 16 g ai/ha, 0 is no effect, 100 is complete control; for Kochia plant response rating: 31 g ai/ha; for Kochia plant response rating / Plant response rating, Kochia: scale 0 to 100 (0 no effect, 100 complete control)
How it was run: as §1

[12] = postemergence, visual rating, 13 to 15 days
[13] = 125 g ai/ha, postemergence, visual rating
[14] = Postemergence, 62 g ai/ha, 13 to 15 days
[15] = 125 g ai/ha, 0 to 100 scale, 0 no effect, 100 complete control
[16] = 500 g ai/ha, 0 to 100 scale where 0 is no effect and 100 is complete control

Compound	Plant response rating (0 to 100), Johnsongrass ([1]; postemergence)	Johnsongrass plant response rating [1, 12]	Plant response rating, Johnsongrass [1, 13]	Plant response rating, Johnsongrass [1, 14]	Plant response rating, Sedge, Umbrella [2]	Plant response rating, Wheat [3, 15]	Plant response rating (0 to 100), Oilseed Rape ([4]; postemergence)	Oilseed Rape plant response rating [4, 12]	Plant response rating, Oilseed Rape [4, 13]	Plant response rating, Oilseed Rape [4, 14]	Barnyardgrass plant response rating (0 to 100 scale, 0 is no effect, 100 is complete control) [5]	Plant response rating (0 to 100), Crabgrass, Large ([6]; postemergence)	Crabgrass, Large plant response rating [6, 12]	Plant response rating, Crabgrass, Large [6, 13]	Plant response rating, Crabgrass, Large [6, 14]	Plant response rating (0 to 100), Barnyardgrass ([7]; postemergence)	Barnyardgrass plant response rating ([7]; postemergence, visual rating)	Plant response rating, Barnyardgrass [7, 13]	Plant response rating, Barnyardgrass ([7]; Postemergence, 62 g ai/ha)	Plant response rating (0 to 100), Morningglory ([8]; postemergence)	other results
N#Cc1cnn(-c2c(Oc3ncc(F)cn3)cccc2C(F)F)c1 [Compound 240]	10	5	10	5	30	30	30	35	60	55	90	10	5	20	5	0	10	20	10	30	Plant response rating, Wheat [3, 16]: 90; Barnyardgrass plant response rating [5, 16]: 100; Morningglory plant response rating [8, 12]: 65; Plant response rating, Morningglory [8, 13]: 90; Plant response rating, Morningglory [8, 14]: 75; Plant response rating (0 to 100), Nutsedge, Yellow ([9]; postemergence): 0; Nutsedge, Yellow plant response rating [9, 12]: 0; Plant response rating, Nutsedge, Yellow [9, 13]: 5; Plant response rating, Nutsedge, Yellow [9, 14]: 0; Plant response rating (0 to 100), Blackgrass ([10]; postemergence): 0; Blackgrass plant response rating [10, 12]: 0; Plant response rating, Blackgrass [10, 13]: 5; Plant response rating, Blackgrass [10, 14]: 0; Plant response rating (0 to 100), Kochia ([11]; postemergence): 40; Kochia plant response rating [11, 12]: 45; Plant response rating, Kochia [11, 13]: 90; Plant response rating, Kochia [11, 14]: 45
FCc1cccc(Oc2ncc(Cl)cn2)c1-n1cc(I)cn1 [Compound 245]	5	5	10	10	60	40	40	50	80	50	70	5	5	15	10	5	5	5	5	5	Plant response rating, Wheat ([3]; 31 g ai/ha, 0 to 100 scale, 0 no effect, 100 complete control): 20; Plant response rating, Barnyardgrass ([5]; 31 g ai/ha, 0 to 100 scale where 0 is no effect and 100 is complete control, visual, approximately 10 days): 0; Morningglory plant response rating [8, 12]: 30; Plant response rating, Morningglory [8, 13]: 85; Plant response rating, Morningglory [8, 14]: 65; Plant response rating (0 to 100), Nutsedge, Yellow ([9]; postemergence): 5; Nutsedge, Yellow plant response rating [9, 12]: 5; Plant response rating, Nutsedge, Yellow [9, 13]: 10; Plant response rating, Nutsedge, Yellow [9, 14]: 5; Plant response rating (0 to 100), Blackgrass ([10]; postemergence): 0; Blackgrass plant response rating [10, 12]: 0; Plant response rating, Blackgrass [10, 13]: 5; Plant response rating, Blackgrass [10, 14]: 5; Plant response rating (0 to 100), Kochia ([11]; postemergence): 45; Kochia plant response rating [11, 12]: 75; Plant response rating, Kochia [11, 13]: 98; Plant response rating, Kochia [11, 14]: 90

— patent publication US9695155B2, “Herbicidal substituted pyrimidinyloxy benzene compounds” (E. I. DU PONT DE NEMOURS AND COMPANY, priority 2013, dated 2017)
